# Experimental data as given in PubChem BioAssay AID651717 (Broad Institute, 2012).
# System: mESC Bmi1-luciferase reporter, firefly/renilla ratio, 24 h
# Assay: Bmi1-luciferase reporter activators in mESC, dose response, esBAF inhibitor project, mouse embryonic stem cells, cherry-pick (AID 651717);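 further: luciferase knocked into Bmi1 locus with EF-1a renilla as cell number control; rising ratio signals esBAF inhibition which derepresses Bmi1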
row,SMILES,AC40 [µM]
1,Cc1cccc(-c2noc(CCC(=O)N3CCN(c4cc(C)ccc4C)CC3)n2)c1,2.82
2,COc1ccc(Nc2ccc3ccccc3c2)cc1,1.13
3,N#Cc1c(/N=C/c2cccs2)sc2c1CCC2,0.897
4,COC(=O)c1c(-c2ccc(SC)cc2)sc2ccc(OC)cc12,0.613
5,CCSc1ccc(/C(N)=N/OC(=O)c2cccs2)cn1,8.66
6,COC(=O)Cc1csc(Nc2ccccc2Cl)n1,6.92
7,COc1ccc(-c2cc([C@H]3[C@H]4C=CC[C@@H](C)[C@@H]4C(=O)N3Cc3ccccc3)ccc2F)cc1OC,17.8
8,CC(=O)Nc1cnc(-c2cc(C)c(O)c(C)c2)cn1,12
9,CCCC1CCC(c2nc(-c3cccnc3)no2)CC1 (stereo unspecified),2.04
10,COc1ccc(NC(=O)Nc2cccc(C)n2)cc1,3.45
11,O=C(O)C=C1CCN(c2ncc(C(F)(F)F)cc2Cl)CC1,2.07
12,CC(C)N1CC2(CC(c3ccccc3F)=NO2)CN1C(=O)c1ccc(C(C)(C)C)cc1 (stereo unspecified),4.08
13,COc1cc2ccccc2cc1C(=O)Nc1ccc(Br)cn1,0.489
14,COc1cccc(N(C(=O)c2cccs2)c2nc3ccccc3s2)c1,3.76
15,COC(=O)Cc1ccc(OCc2ccc(Cl)nc2)cc1,6.74
16,O=C(Nc1ccncc1)c1ccc2ncsc2c1,22.8
17,O=C(Nc1ccc(Nc2ccccc2)cc1)Nc1ccccc1Cl,4.5
18,COc1ccc(CNC(=O)Nc2cccc(C)c2)cc1,5.8
19,CNc1nc(-c2ccc3c(c2)CCN3C(=O)c2ccc(F)cc2)cs1,8.13
20,COc1ccc(CNC(=O)c2ccc(-c3ccccc3)cc2)cc1,6.89
21,CC(=O)Nc1nc(-c2ccc(-c3ccccc3)cc2)cs1,1.56
22,CCSc1nnc(NC(=O)c2ccc3nc[nH]c3c2)s1,12.7
23,Cc1ccc(/C(N)=N/OC(=O)CCc2ccccc2)cc1,11
24,Cc1cccc(NC(=O)C2C3CCCCC32)c1 (stereo unspecified),4.55
25,COc1ccc(C)cc1NCc1cc(=O)oc2cc(-c3ccccc3)c(O)cc12,32.4
26,CCCNC(=O)Nc1ccc2c(c1)C(=O)N(C)C[C@H](OC)[C@@H](C)CN(Cc1ccc(-c3ccccn3)cc1)[C@@H](C)CO2,14.1

row,SMILES,AC40 [µM]
1,COC(=O)CN(C)C(=O)c1ccc2nc(Cc3cccc(Cl)c3)oc2c1,2.4
2,CC(C)(C)NC(=O)Cn1nnc(-c2ccccc2Cl)n1,5.29
3,CSc1nnc(NC(=O)c2cc3ccccc3oc2=O)s1,5.97
4,Cc1ccc(OCc2cnc(Cl)s2)c(C)c1,4.12
5,CC(=Nc1ccccc1O)c1sc2ccccc2c1O,3.82
6,CC1CCCC(C)N1C(=O)c1cc(-c2ccc(Cl)c(Cl)c2)on1 (stereo unspecified),6.88
7,O=C(Nc1ccc2c(c1)C(=O)c1ccccc1-2)c1ccccc1,1.08
8,COc1ccc(N2CCN(C(=O)C3Cc4ccccc4CN3C(=O)c3ccccc3)CC2)cc1 (stereo unspecified),16.5
9,CCC(C)c1ccc(NC(=O)C2CC2)cc1 (stereo unspecified),5.85
10,CC1CCCN(C(=O)c2cc3c(=O)n4ccccc4nc3s2)C1 (stereo unspecified),14.1
11,COCOc1ccc(-c2cc(=O)c3c(O)cc(OCOC)cc3o2)cc1,8.4
12,Cc1ccccc1C(=O)c1cccn1CC(=O)NCc1ccccc1Cl,9.17
13,Cc1ccc(O)c(N=Cc2ccc(C)s2)c1,25.8
14,CC(C)C(=O)N1CCN(c2nc3ccc(Cl)cc3s2)CC1,3.33
15,C#CCN(CC=C)C(=O)CCc1nnc(COc2ccccc2)o1,22.4
16,O=C(O)c1cc(-c2ccc(-c3c(-c4ccc5c(c4)OCO5)noc3-c3ccsc3)cc2)nc2ccccc12,6.89
17,Cc1ccc(NC(=O)NC2CCCCCCC2)cc1C,4.22
18,Cc1ccc(NC(=O)Cc2noc3ccccc23)cc1,2.47
19,Cc1ccc(S(=O)(=O)N(C)CC(=O)Nc2cc(C)ccn2)cc1,9.84
20,COc1ccc(NC(=O)c2ccc3ccccc3c2OC)cc1,2.56
21,CC(C)(C)C(=O)N1CCN(c2nc3ccc(Br)cc3s2)CC1,1.53
22,O=C(NNC(=O)c1cccc2ccccc12)c1ccc2c(c1)OCO2,17.8
23,CC(C)CN1C(=O)c2ccc(NC(=O)c3cccs3)cc2C1=O,3.84
24,CN(C)c1ccc(-c2csc(C(O)c3ccccc3)n2)cc1 (stereo unspecified),0.311
25,COc1ccc(Cc2c(-c3ccc(F)cc3)nc3ccc(Br)cn23)c(C)c1,3.51
26,Cc1cc(Br)ccc1OCc1nc(-c2cccnc2)no1,9.06

row,SMILES,AC40 [µM]
1,CCCCN1C(=S)NC[C@@H]1Cc1cccc2ccccc12,17.3
2,Brc1ccccc1-c1nnc(-c2cccnc2)o1,6.08
3,Nc1nc(SCc2ccccc2)sc1C(=O)N1CCCCC1,2.53
4,COc1cccc(OCc2cc(C(=O)N(C)C3CCCCC3)no2)c1,4.53
5,COc1cccc(Nc2cc(C)c3ccccc3n2)c1,6.06
6,c1ccc(-c2cc3ccccc3[nH]2)cc1,5.17
7,O=C(Nc1cccc(-c2nc3ccccc3s2)c1)c1cc(-n2cnnc2)ccc1Cl,7.62
8,CO[C@@H]1CN(C)C(=O)c2cc(NC(=O)Nc3ccc4c(c3)OCO4)ccc2OC[C@@H](C)NC[C@@H]1C,3.02
9,COc1ccc(C2CC2/C(=N/OC(=O)c2cccs2)c2ccccc2)cc1 (stereo unspecified),2.9
10,C(=NN=Cc1c[nH]c2ccccc12)c1c[nH]c2ccccc12,3.9
11,Cc1ccc(NC(=O)O/N=C/c2ccc(F)cc2)cc1,8.83
12,CN(C)S(=O)(=O)c1ccc2c(c1)/C(=C/c1cc3c([nH]1)CCCC3)C(=O)N2,3.25
13,COc1cc(CNc2ccc(S(N)(=O)=O)cc2)ccc1OCc1ccccc1F,1.87
14,CCC(=O)c1ccc(N2CCCCCC2)c(F)c1,4.92
15,Cc1ccc2[nH]c(C(=O)N3CCCCC3)cc2c1,6.79
16,COc1cc(C2Nc3cc(Cl)c(S(N)(=O)=O)cc3S(=O)(=O)N2)ccc1OCc1ccccc1 (stereo unspecified),3.48
17,C/C(=N/O)c1cccc(N2Cc3ccccc3C2)c1,18.5
18,O=C(O)c1ccc(O)c2ncccc12,1.67
19,COc1cc(/C=C/c2ccc(O)cc2)cc(OC)c1,2.31
20,Cc1ccc(Nc2nc(Cl)nc(NC(C)(C)C)n2)cc1,1.47
21,O=C(NC1CCCCC1)c1ccc(-c2ccccc2)cc1,3.77
22,c1ccc(-n2nnc3ccccc32)nc1,11.2
23,Clc1cccc2sc(N3CCCCC3)nc12,5.75
24,Cc1ccc(-c2nc(COC(=O)c3c(C)noc3C)cs2)cc1,4.93
25,CCc1c(C)sc(NC(=O)c2cccs2)c1C(N)=O,2.66
26,Cc1[nH]c2ccccc2c(=O)c1CN(C)Cc1ccccc1,10.4

row,SMILES,AC40 [µM]
1,Cc1ccc(C)c(N2CCN(C(=O)CCc3nc(-c4ccccc4Br)no3)CC2)c1,15.8
2,Cc1cc(-c2nnc(-c3cccc(C(F)(F)F)c3)o2)no1,6.58
3,COc1ccc(/C=N/NC(=O)c2cccs2)c2ccccc12,9.35
4,COc1cccc(C(=O)c2cc3cc(Cl)ccc3[nH]2)c1,3.55
5,CNC(=O)c1ccc(-c2ccccc2)s1,5.62
6,Cc1sc2nc(-c3ccc(Br)cc3)oc(=O)c2c1C,1.61
7,Cc1ccnc(NC(=O)CCCc2ccccc2)c1,5.74
8,Cc1ccc2oc3ccccc3c(=O)c2c1,7.05
9,c1ccc2nc3c(ccc4ccccc43)cc2c1,0.939
10,COC(=O)N1CCCC(c2cc(C(=O)Nc3ccccc3Cl)no2)C1 (stereo unspecified),3.3
11,O=C(CNC(=O)c1ccccc1F)Nc1ccc2c(c1)OCO2,3.55
12,CC1CCCC(C)N1CCCNC(=O)c1ccc2nc(N3CCCCC3)sc2c1 (stereo unspecified),9
13,Nc1nc(-c2cccc(F)c2)cs1,6.13
14,O=C(c1cc(COc2cccc(C(F)(F)F)c2)on1)N1CCCC1,17.5
15,Cc1ccc(-c2csc(NC(=O)c3ccno3)n2)cc1,8.99
16,Cc1ccnc(NC(=O)c2ccc(OCc3c(C)noc3C)cc2)c1,3.44
17,COc1ccc(CCn2nnc3ccccc3c2=O)cc1OC,4.92
18,Cc1cccc(C)c1OCc1cc(C(=O)N2CCC(C3CCCCC3)C2)no1 (stereo unspecified),4.72
19,O=C(c1ccc(Cl)cc1)c1cnc(Nc2ccccc2)s1,1.46
20,Cc1ccc2c(CN(C)Cc3cccc(F)c3)cc(=O)oc2c1,2.23
21,O=C1NCCC/C1=N/Nc1cc(F)ccc1F,2.6
22,Cc1nc(C)c(-c2csc(Nc3ccc(Cl)cn3)n2)s1,8.77
23,CC(=O)Nc1ccc(NC(=O)c2cc(-c3ccc(F)cc3C)n[nH]2)cc1,7.08
24,O=C(Cc1ccccc1)Nc1ccc2c(c1)OC1(CCCC1)O2,3.73
25,O=C(O)c1ccc2noc(-c3ccccc3)c2c1,1.54
26,Cc1cccc(-c2noc(Cc3ccccc3)n2)c1,2.87

row,SMILES,AC40 [µM]
1,NCC(=O)c1ccccc1,23
2,C#CCn1cccc(C(=O)Nc2ccc(OC)cc2)c1=O,10.7
3,C=CCN(C(=O)C1CC(=O)N(C2CCCC2)C1)c1nc(-c2ccc(S(C)(=O)=O)cc2)cs1 (stereo unspecified),34.4
4,COc1ccc(/C=N/Nc2nc(C)nc(N)n2)cc1,15.5
5,COc1cccc(-c2cc(C(=O)NC3CCCCC3)no2)c1,1.71
6,Cc1cccc(COc2ccc(/C=N/NC(=O)c3nnn(-c4nonc4N)c3CN3CCCCC3)cc2)c1,34.2
7,FC(F)Oc1ccccc1/C=N/Nc1nc2ccccc2o1,3.81
8,COc1ccc2c(c1)nc(-c1cccc(Br)c1)c(=O)n2C(c1ccccn1)c1nc2ccccc2[nH]1 (stereo unspecified),2.94
9,CN(Cc1nccn1C)C(=O)c1ccc2nc(Cc3ccccc3F)oc2c1,5.37
10,Cc1ccc(-c2nc3ccccc3[nH]2)cn1,3.49
11,Fc1cccc(-c2ncc(-c3ccccc3)o2)c1,0.768
12,CCOC(=O)C1=C(CSc2nc(-c3ccccc3)ccc2C#N)OC(N)=C(C#N)C1c1cccnc1 (stereo unspecified),2.89
13,COc1ccccc1-c1nc(SCc2ccccn2)n[nH]1,8.67
14,Cc1noc(C)c1C(=O)Nc1nc2ccccc2s1,3.83
15,CC(=O)Nc1ccc(CNc2nc3cc(-c4ccsc4)sc3c(=O)n2C)cc1,6.16
16,CCCCCn1c(=O)c(C(=O)Nc2ccccc2Cl)c(O)c2ccccc21,5.14
17,CCCC(=O)Nc1sc2c(c1C#N)CCCCC2,2.39
18,Cc1ccc(-c2noc(-c3ccccc3C(=O)N3CCN(C)CC3)n2)cc1,11.5
19,O=C(c1c(F)cccc1F)N1CCCC(c2nc(-c3cccs3)no2)C1 (stereo unspecified),11.8
20,O=c1c2ccccc2oc2cc(Br)ccc12,7.16
21,Cc1cccc(OCc2nc3ccccc3n2C)c1,6.7
22,Cc1ccc(Cn2cc(-c3ccccc3)nn2)cc1,7.62
